Patent publication US11814364B2, “Pyridine N-oxide derivatives useful as factor XIa inhibitors” (Janssen Pharmaceutica NV, priority 2021, dated 2023)

Molecular target: human plasma kallikrein (Homo sapiens, UniProt P03952)
Assay: Kallikrein inhibition FLINT assay with quenched AMC peptide substrate Z-Gly-Pro-Arg-AMC (end point EP or kinetic KIN reads)
Assay type: biochemical
Conditions: kinetic reads at 5 min intervals over 30 min; read-out: Kallikrein (KIN) IC50
In short: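 Enzyme and compound were preincubated 30 min before adding 50 μM AMC substrate in pH 7.5 Tris/NaCl/CaCl2/BSA/CHAPS buffer. AMC release was read at 30 min endpoint or every 5 min.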

human plasma kallikrein, sequence (P03952 391-638 limits assumed): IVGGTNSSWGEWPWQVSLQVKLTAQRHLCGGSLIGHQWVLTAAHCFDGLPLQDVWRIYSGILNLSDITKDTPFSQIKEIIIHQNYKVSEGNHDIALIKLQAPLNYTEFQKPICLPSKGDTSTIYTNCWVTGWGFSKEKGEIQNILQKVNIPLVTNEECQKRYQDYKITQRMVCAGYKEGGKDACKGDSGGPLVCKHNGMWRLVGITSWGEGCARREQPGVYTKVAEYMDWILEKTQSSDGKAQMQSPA
human plasma kallikrein, sequence (P03952 20-390 partner limits assumed): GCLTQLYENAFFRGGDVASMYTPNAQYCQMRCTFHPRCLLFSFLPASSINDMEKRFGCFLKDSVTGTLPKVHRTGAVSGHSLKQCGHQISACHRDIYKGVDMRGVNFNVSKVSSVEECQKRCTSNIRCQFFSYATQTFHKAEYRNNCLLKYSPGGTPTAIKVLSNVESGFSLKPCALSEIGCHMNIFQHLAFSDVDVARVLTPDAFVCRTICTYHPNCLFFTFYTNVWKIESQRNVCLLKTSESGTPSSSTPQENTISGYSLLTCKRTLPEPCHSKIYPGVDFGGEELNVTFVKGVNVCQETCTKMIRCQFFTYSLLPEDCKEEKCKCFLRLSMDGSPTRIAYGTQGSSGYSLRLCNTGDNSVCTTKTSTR

IC50 | SMILES
517 nM | Cn1ccc(C[C@H](c2ccc(-c3cc(Cl)ccc3OCC(F)(F)F)c[n+]2[O-])n2cc(-c3ccc(C(=O)O)cc3)cn2)n1 [Example Q58]
13.5 nM | [O-][n+]1cc(-c2c(-n3cnnn3)ccc(Cl)c2F)ccc1[C@@H](CCOC(F)F)n1cc(-c2scnc2C(F)(F)F)cn1 [Example P580]
11.8 nM | O=C(O)c1ccc(-c2cnn(C(Cc3ncco3)c3ccc(-c4c(-n5cc(C(F)(F)F)nn5)ccc(Cl)c4F)c[n+]3[O-])c2)cc1F (centres unmarked) [Example P912]
78.3 nM | COCC[C@H](c1ccc(-c2c(-n3cnnn3)ccc(Cl)c2F)c[n+]1[O-])n1cc(-c2ccnn2C(F)F)cn1 [Example P561]
10.2 nM | NC(=O)Cc1ccn(CC(c2ccc(-c3c(-n4cnnn4)ccc(Cl)c3F)c[n+]2[O-])n2cc(-c3ccnc(C(F)(F)F)c3)cn2)n1 (centres unmarked) [Example P486]
228 nM | Nc1ncc(-c2cnn(C(CC3CC3)c3ccc(-c4c(-n5cnnn5)ccc(Cl)c4F)c[n+]3[O-])c2)cc1F (single isomer, unassigned) [Example P194]
23.7 nM | [O-][n+]1cc(-c2c(-n3cnnn3)ccc(Cl)c2F)ccc1C(Cn1ccc(C(F)(F)F)n1)n1cc(-c2ccnc(F)c2)cn1 (centres unmarked) [Example P357]
4.2 nM | CS(=O)(=O)Nc1ccc(-c2cnn(C(Cc3ccccc3)c3ccc(-c4c(-n5cnnn5)ccc(Cl)c4F)c[n+]3[O-])c2)cc1 (centres unmarked) [Example P76]
26.9 nM | O=C(O)c1ccc(-c2cnn(C(CN3CCCC3=O)c3ccc(-c4cc(Cl)ccc4-n4cnnn4)c[n+]3[O-])c2)cc1 (centres unmarked) [Example P163]
17.4 nM | [O-][n+]1cc(-c2c(-n3cc(Br)nn3)ccc(Cl)c2F)ccc1[C@@H](CCOC(F)F)n1cc(-c2ncnn2C(F)F)cn1 [Example P788]
10.8 nM | Cn1cc(CC(c2ccc(-c3c(-n4cnnn4)ccc(Cl)c3F)c[n+]2[O-])n2cc(-c3ccnc(C(F)(F)F)c3)cn2)cn1 (centres unmarked) [Example P452]
19 nM | N#Cc1cc(-c2cnn(C(CCOC(F)F)c3ccc(-c4c(-n5cnnn5)ccc(Cl)c4F)c[n+]3[O-])c2)ccn1 (centres unmarked) [Example P458]
205 nM | COCC[C@H](c1ccc(-c2c(-n3cc(OC(F)F)nn3)ccc(Cl)c2F)c[n+]1[O-])n1cc(-c2cnnn2C)cn1 [Example P616]
66.2 nM | [O-][n+]1cc(-c2c(-n3cc(Cl)nn3)ccc(Cl)c2F)ccc1[C@@H](Cn1cc(F)cn1)n1cc(-c2c(F)cnn2C(F)F)cn1 [Example P631]
0.3 nM | NC(=O)c1ccc(-c2cnn(C(Cc3ccn(C(F)F)n3)c3ccc(-c4c(-n5cc(C(F)(F)F)nn5)ccc(Cl)c4F)c[n+]3[O-])c2)cc1 (single isomer, unassigned) [Example P908]
30.7 nM | O=C(O)c1ccc(-c2cnn(C(CCOC(F)F)c3ccc(-c4c(-n5cc(C(F)(F)F)nn5)ccc(Cl)c4F)c[n+]3[O-])c2)cc1 (centres unmarked) [Example P838]
268 nM | [O-][n+]1cc(-c2c(-n3cnnn3)ccc(Cl)c2F)ccc1C(Cn1ccc(-c2ccccc2)n1)n1cc(-c2ccncc2)cn1 (centres unmarked) [Example P270]
18.6 nM | [O-][n+]1cc(-c2c(-n3cnnn3)ccc(Cl)c2F)ccc1C(CCOC(F)F)n1cc(-c2ccnc(C(F)(F)F)n2)cn1 (single isomer, unassigned) [Example P401]
180 nM | COCC[C@H](c1ccc(-c2c(-n3cnnn3)ccc(Cl)c2F)c[n+]1[O-])n1cc(-c2cnnn2C(F)F)cn1 [Example P690]
81.9 nM | O=c1ccccn1CC(c1ccc(-c2c(-n3cnnn3)ccc(Cl)c2F)c[n+]1[O-])n1cc(-c2ccnc(C(F)(F)F)c2)cn1 (centres unmarked) [Example P358]
40.7 nM | Cc1cc(-c2cnn(C(Cn3cc(F)cn3)c3ccc(-c4c(-n5cnnn5)ccc(Cl)c4F)c[n+]3[O-])c2)cc[n+]1[O-] (centres unmarked) [Example P472]
6.2 nM | NC(=O)c1ccc(-c2cnn(C(Cc3nccs3)c3ccc(-c4c(-n5cc(C(F)(F)F)nn5)ccc(Cl)c4F)c[n+]3[O-])c2)cc1F (single isomer, unassigned) [Example P943]
19.8 nM | Cn1nnc(F)c1-c1cnn(C(CCOC(F)F)c2ccc(-c3c(-n4cnnn4)ccc(Cl)c3F)c[n+]2[O-])c1 (centres unmarked) [Example P749]
